Read-outs that look alike come from different tables or passages of the source.
Tests used:
[1] = tested on: Eg5; details: experimental binding free energy, ref Schrödinger FEP+ benchmark; cited from earlier work
[2] = target: T1, SHP2^WT (1–593) (Homo sapiens, UniProt Q06124); assay: SHP-2 prompt fluorescence phosphatase assay (DiFMUP), SHP2^WT; format: biochemical; design: ΔG experiment: unit not given here; details: for pIC50: from experimental IC50; for ΔG experiment: experimental binding free energy converted from IC50; for ΔGexp: converted from IC50 with ΔGexp ≈ kBTlog IC50
T1 construct: made in house; host or cells: E. coli BL21 Star (DE3), pET30 vector
T1 sequence (Q06124 1-593): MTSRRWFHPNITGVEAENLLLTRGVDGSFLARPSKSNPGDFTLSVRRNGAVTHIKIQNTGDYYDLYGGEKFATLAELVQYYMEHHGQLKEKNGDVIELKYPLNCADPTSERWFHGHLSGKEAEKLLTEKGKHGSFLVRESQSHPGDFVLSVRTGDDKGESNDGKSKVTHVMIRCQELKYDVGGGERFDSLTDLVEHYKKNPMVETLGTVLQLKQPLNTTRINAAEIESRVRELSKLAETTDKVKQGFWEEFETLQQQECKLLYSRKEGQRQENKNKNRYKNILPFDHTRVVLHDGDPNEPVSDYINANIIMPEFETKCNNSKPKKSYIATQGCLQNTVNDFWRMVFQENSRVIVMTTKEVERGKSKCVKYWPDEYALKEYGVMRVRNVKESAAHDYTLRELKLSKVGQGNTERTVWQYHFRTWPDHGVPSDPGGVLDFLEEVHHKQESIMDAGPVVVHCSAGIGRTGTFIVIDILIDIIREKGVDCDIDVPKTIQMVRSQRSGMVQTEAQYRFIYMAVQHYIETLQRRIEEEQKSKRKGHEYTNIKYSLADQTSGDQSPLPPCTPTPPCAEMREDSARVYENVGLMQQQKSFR
Method: Briefly, the constructs were transformed into BL21 Star^TM (DE3) cells and cultured at 37 °C for 3~4 h. Subsequently, the cells with high expression of SHP2 protein were harvested after being induced by IPTG and grown overnight at 18 °C. Cell pellets were resuspended in lysis buffer (25 mM imidazole, 50 mM Tris−HCl, 500 mM NaCl, 2.5 mM MgCl2, 1 mM tris(2-carboxyethyl)phosphine (TCEP), 1 μg/mL DNase1, and complete EDTA-free protease inhibitor) and lysed using Low Temperature Ultrahigh Pressure Continuous Flow Cell Disrupter (JNBIO), followed by ultracentrifugation. The supernatant was collected. Then, the SHP2 was purified from the collected supernatant by using HisTrap HP chelation column, TEV protease, and HiTrap Q FastFlow column.
Then, the mixture was then incubated at 25 °C for 60 min. To initiate the reaction, the surrogate substrate DiFMUP (Invitrogen, cat. no. D6567, Shuzhou, China, 200 μM) was added and incubated at 25 °C for another 30 min. […] Fluorescence signal was detected using a microplate reader (Bio-Tek, Shanghai, China, Synergy2) at Ex/Em = 340/450 nm. Using control-based normalization, normalized IC50 regression curves were fitted to inhibitor dose response curves.

[3] = tested on: SYK; design: method as in Schrödinger FEP+ benchmark; details: FEP+ predicted binding free energy, ref Schrödinger FEP+ benchmark; cited from earlier work
[4] = tested on: c-Met; design: method as in earlier work; details: FEP+ predicted ΔG from the benchmark; cited from earlier work
[5] = tested on: c-Met; design: method as in earlier work; details: Schrödinger FEP+ benchmark; cited from earlier work
[6] = tested on: THR-β; assay: Experimental THR-β activity of agonists taken from Hu et al.; format: biochemical; details: Table S4, converted from the experimental value
Text: In the initial phase of our investigation, we conducted a retrospective evaluation of FMOScore’s performance concerning thyroid hormone receptor β (THR-β) agonists, using a set of 18 compounds taken from the work of Hu et al. [65]

[7] = tested on: SYK; details: experimental binding free energy, ref Schrödinger FEP+ benchmark; cited from earlier work
[8] = SHP-2_case sheet, designed SHP-2 inhibitors, read-out: IC50uM
[9] = SHP-2_case sheet, same IC50 restated in another unit, read-out: IC50nM
[10] = SHP2^WT, DiFMUP substrate, averages of three independent experiments, read-out: SHP-2 IC50

CNC[C@H]1CC[C@@H]2[C@H](O1)c1cc(C(F)(F)F)ccc1N[C@H]2c1ccc(O)cc1 [CHEMBL1083517]
Exp. ΔG [1]: -11.46 kcal/mol

FC(F)(F)c1ccc2c(c1)[C@H]1O[C@@H](Cn3cncn3)CC[C@H]1[C@H](c1ccccc1)N2 [CHEMBL1093088]
Exp. ΔG [1]: -11.22 kcal/mol

CNC[C@H]1CC[C@@H]2[C@H](O1)c1cc(C3CC3)ccc1N[C@H]2c1ccccc1 [CHEMBL1083836]
Exp. ΔG [1]: -10.86 kcal/mol

CC1(N)CCN(c2cnc(-c3cccc(F)c3Cl)c(N)c2)CC1 [A-S5]
IC50 [2, 8]: 15.1 µM | pIC50 ([2]; SHP-2_case sheet): 4.821 | IC50 [2, 9]: 15.1 µM | ΔG experiment [2]: -6.573

Clc1ccc2c(c1)[C@H]1OCCC[C@H]1[C@H](c1ccccc1)N2 [CHEMBL1089393]
Exp. ΔG [1]: -8.38 kcal/mol

CC1(N)CCN(c2cnc(-c3ccnc(Cl)c3Cl)c(N)c2)CC1 [Compound 6, 5-(4-amino-4-methylpiperidin-1-yl)-2′,3′-dichloro-[2,4′-bipyridin]-3-amine]
FEP [3]: -9.59 kcal/mol | FEP [4]: -12.22 kcal/mol | Exp. ΔG [5]: -12.28 kcal/mol | IC50 [2, 10]: 10.7 ± 0.92 µM | ΔGexp [2]: -6.780 kcal/mol | ΔGexp [6]: -10.257 kcal/mol | Exp. ΔG [7]: -11.69 kcal/mol

CC(C)(C)c1ccc2c(c1)[C@H]1OCCC[C@H]1[C@H](c1ccsc1)N2 [CHEMBL1084115]
Exp. ΔG [1]: -9.44 kcal/mol

CN(C)CCS(=O)(=O)NC[C@H]1CC[C@@H]2[C@H](O1)c1cc(Cl)cc(F)c1N[C@H]2c1ccccc1 [CHEMBL1096003]
Exp. ΔG [1]: -11.87 kcal/mol

CNC[C@H]1CC[C@@H]2[C@H](O1)c1cc(C(C)(C)C)ccc1N[C@H]2c1cccs1 [CHEMBL1077227]
Exp. ΔG [1]: -11.32 kcal/mol

Cc1ccc(C(=O)N(CCN)C[C@H]2CC[C@@H]3[C@H](O2)c2cc(C(F)(F)F)ccc2N[C@H]3c2ccccc2)cc1 [CHEMBL1084431]
Exp. ΔG [1]: -9.8 kcal/mol

CN(C)CCCC(=O)NC[C@H]1CC[C@@H]2[C@H](O1)c1cc(Br)cc(F)c1N[C@H]2c1ccccc1 [CHEMBL1085692]
Exp. ΔG [1]: -11.32 kcal/mol

OCCNC[C@H]1CC[C@@H]2[C@H](O1)c1cc(Cl)cc(F)c1N[C@H]2c1ccccc1 [CHEMBL1096002]
Exp. ΔG [1]: -11.13 kcal/mol

CNCCS(=O)(=O)NC[C@H]1CC[C@@H]2[C@H](O1)c1cc(C(F)(F)F)ccc1N[C@H]2c1ccccc1 [CHEMBL1084677]
Exp. ΔG [1]: -11.46 kcal/mol

CNC[C@H]1CC[C@@H]2[C@H](O1)c1cc(Br)cc(F)c1N[C@H]2c1ccccc1 [CHEMBL1082248]
Exp. ΔG [1]: -11.63 kcal/mol

CC1(N)CCN(c2cnc(-c3cccc(Cl)c3Cl)c(N)c2)CC1 [A-S1]
IC50 [2, 8]: 1.49 µM | pIC50 ([2]; SHP-2_case sheet): 5.826 | IC50 [2, 9]: 1.49 µM | ΔG experiment [2]: -7.943

NCCN(C[C@H]1CC[C@@H]2[C@H](O1)c1cc(C(F)(F)F)ccc1N[C@H]2c1ccccc1)c1ccccc1 [CHEMBL1093087]
Exp. ΔG [1]: -10.53 kcal/mol

Nc1cc(N2CCC3(CCCC3N)CC2)cnc1Sc1cccc(Cl)c1Cl (centres unmarked) [A-S8]
IC50 [2, 8]: 2.29 µM | pIC50 ([2]; SHP-2_case sheet): 5.64 | IC50 [2, 9]: 2.29 µM | ΔG experiment [2]: -7.69

CN(C[C@H]1CC[C@@H]2[C@H](O1)c1cc(C(F)(F)F)ccc1N[C@H]2c1ccccc1)S(=O)(=O)CCCN [CHEMBL1084678]
Exp. ΔG [1]: -11.13 kcal/mol

CN(C)CCNC(=O)NC[C@H]1CC[C@@H]2[C@H](O1)c1cc(C(F)(F)F)ccc1N[C@H]2c1ccccc1 [CHEMBL1077204]
Exp. ΔG [1]: -11.05 kcal/mol

CNC[C@H]1CC[C@@H]2[C@H](O1)c1cc(C(F)(F)F)ccc1N[C@H]2c1ccc(F)cc1 [CHEMBL1086409]
Exp. ΔG [1]: -9.87 kcal/mol

CC(C)(C)c1ccc2c(c1)[C@H]1OCCC[C@H]1[C@H](c1cccs1)N2 [CHEMBL1078998]
Exp. ΔG [1]: -10.37 kcal/mol

CNC[C@H]1CC[C@@H]2[C@H](O1)c1cc(C(C)(C)C)ccc1N[C@H]2c1ccccc1 [CHEMBL1086410]
Exp. ΔG [1]: -11.46 kcal/mol

NC[C@H]1CC[C@@H]2[C@H](O1)c1cc(C(F)(F)F)ccc1N[C@H]2c1ccccc1 [CHEMBL1085666]
Exp. ΔG [1]: -10.5 kcal/mol

CN(C)CCOC(=O)NC[C@H]1CC[C@@H]2[C@H](O1)c1cc(C(F)(F)F)ccc1N[C@H]2c1ccccc1 [CHEMBL1084676]
Exp. ΔG [1]: -10.71 kcal/mol

Nc1cc(NC2CCNCC2)cnc1-c1cccc(Cl)c1Cl [A-S4]
IC50 [2, 8]: 23.5 µM | pIC50 ([2]; SHP-2_case sheet): 4.629 | IC50 [2, 9]: 23.5 µM | ΔG experiment [2]: -6.312

CC(C)(C)c1ccc2c(c1)[C@H]1OCCC[C@H]1[C@H](c1ccc(O)c(F)c1)N2 [CHEMBL1078774]
Exp. ΔG [1]: -10.6 kcal/mol

Cc1ccc2c(c1)[C@H]1OCCC[C@H]1[C@H](c1ccccc1)N2 [CHEMBL1088740]
Exp. ΔG [1]: -8.7 kcal/mol

CC(C)c1ccc2c(c1)[C@H]1O[C@@H](CNS(=O)(=O)CCCN(C)C)CC[C@H]1[C@H](c1ccccc1)N2 [CHEMBL1084143]
Exp. ΔG [1]: -11.87 kcal/mol

CC(=O)NCCNC[C@H]1CC[C@@H]2[C@H](O1)c1cc(Br)cc(F)c1N[C@H]2c1ccccc1 [CHEMBL1082249]
Exp. ΔG [1]: -11.22 kcal/mol

CC1(N)CCN(c2cnc(Sc3cccc(Cl)c3Cl)c(N)c2)CC1 [A-S7]
IC50 [2, 8]: 11.2 µM | pIC50 ([2]; SHP-2_case sheet): 4.949 | IC50 [2, 9]: 11.2 µM | ΔG experiment [2]: -6.748

CCN(CCO)C[C@H]1CC[C@@H]2[C@H](O1)c1cc(C(C)(C)C)ccc1N[C@H]2c1ccccc1 [CHEMBL1084935]
Exp. ΔG [1]: -10.53 kcal/mol

Nc1cc(NCC2CCCNC2)cnc1-c1cccc(Cl)c1Cl (centres unmarked) [A-S2]
IC50 [2, 8]: 15.6 µM | pIC50 ([2]; SHP-2_case sheet): 4.8066 | IC50 [2, 9]: 15.6 µM | ΔG experiment [2]: -6.554

CC(C)(C)c1ccc2c(c1)[C@H]1OCCC[C@H]1[C@H](c1ccccc1)N2 [CHEMBL1089056]
Exp. ΔG [1]: -9.44 kcal/mol

CC1(N)CCN(c2cnc(-c3cccc(F)c3Cl)c(N)c2)CC1 [Compound 5, 5-(4-amino-4-methylpiperidin-1-yl)-2-(2-chloro-3-fluorophenyl) pyridin-3-amine]
FEP [4]: -8.31 kcal/mol | Exp. ΔG [5]: -9.14 kcal/mol | IC50 [2, 10]: 15.1 ± 0.8 µM | ΔGexp [2]: -6.573 kcal/mol | ΔGexp [6]: -5.453 kcal/mol

CC1(N)CCN(c2cnc(-c3ccnc(Cl)c3Cl)c(N)c2)CC1 [A-S6]
IC50 [2, 8]: 10.7 µM | pIC50 ([2]; SHP-2_case sheet): 4.973 | IC50 [2, 9]: 10.7 µM | ΔG experiment [2]: -6.78

Nc1cc(NC2CCNC2)cnc1-c1cccc(Cl)c1Cl (centres unmarked) [A-S3]
IC50 [2, 8]: 5.17 µM | pIC50 ([2]; SHP-2_case sheet): 5.286 | IC50 [2, 9]: 5.17 µM | ΔG experiment [2]: -7.208

CC(C)(C)c1ccc2c(c1)[C@H]1OCCC[C@H]1[C@H](c1ccc(O)cc1)N2 [CHEMBL1078691]
Exp. ΔG [1]: -10.19 kcal/mol

Source: article PMC10779950, “Binding Free Energy Calculation Based on the Fragment Molecular Orbital Method and Its Application in Designing Novel SHP-2 Allosteric Inhibitors” (International Journal of Molecular Sciences, 2024)
